The record followed here is ChEMBL document CHEMBL5252552, “Defined concatenated α6α1β3γ2 GABAA receptor constructs reveal dual action of pyrazoloquinolinone allosteric modulators” (Bioorg Med Chem, 2019).

In assay [1] the target is Gamma-aminobutyric acid receptor subunit alpha-1/beta-3/gamma-2 (Rattus norvegicus) (UniProt P18508+P62813+P63079). In words: Positive allosteric modulation of rat recombinant GABAA alpha1beta3alpha1-gamma2beta3 receptor expressed in Xenopus laevis oocytes assessed as maximal efficacy at -80 mV holding potential at 10 nM in presence of GABA EC1 to 1.5 by two-electrode voltage-clamp assay. It is filed as cell-based. Conditions: Oocyte.

The target of assay [2] is T1, Gamma-aminobutyric acid receptor subunit alpha-1/alpha-6/beta-3/gamma-2 (Rattus norvegicus) (UniProt P18508+P30191+P62813+P63079). Put plainly: Positive allosteric modulation of rat recombinant GABAA gamma2beta3alpha1-beta3alpha6 receptor expressed in Xenopus laevis oocytes assessed as maximal efficacy at -80 mV holding potential at 30 uM in presence of GABA EC1 to 1.5 by two-electrode voltage-clamp assay. Type of assay: cell-based. Conditions: Oocyte, filed as positive allosteric modulator. On the technique in general: Two-electrode voltage clamp is typically applied to oocytes expressing channels or transporters.

The target of assay [3] is Gamma-aminobutyric acid receptor subunit alpha-6/beta-3/gamma-2 (Rattus norvegicus, UniProt P18508+P30191+P63079). Put plainly: Positive allosteric modulation of rat recombinant GABAA alpha6beta3alpha6-gamma2beta3 receptor expressed in Xenopus laevis oocytes assessed as increase in GABA-induced current amplitude at -80 mV holding potential under less potent phase in presence of GABA EC1 to 1.5 by two-electrode voltage-clamp assay. It is filed as cell-based, Oocyte.

For assay [4], the target named is Gamma-aminobutyric acid receptor subunit alpha-6/beta-3/gamma-2 (Rattus norvegicus) (UniProt P18508+P30191+P63079). Put plainly: Positive allosteric modulation of rat recombinant GABAA alpha6beta3gamma2 receptor expressed in Xenopus laevis oocytes assessed as maximal current at -80 mV holding potential under more potent phase in presence of GABA EC1 to 1.5 by two-electrode voltage-clamp assay relative to control. It is filed as cell-based. Conditions: Oocyte, filed as positive allosteric modulator.

In assay [5] the target is T1, Gamma-aminobutyric acid receptor subunit alpha-1/alpha-6/beta-3/gamma-2 (Rattus norvegicus). In words: Positive allosteric modulation of rat recombinant GABAA alpha6beta3alpha1-gamma2beta3 receptor expressed in Xenopus laevis oocytes assessed as maximal current at -80 mV holding potential under less potent phase in presence of GABA EC1 to 1.5 by two-electrode voltage-clamp assay relative to control. It is filed as cell-based. Conditions: Oocyte, filed as positive allosteric modulator.

Sequence of Gamma-aminobutyric acid receptor subunit alpha-6/beta-3/gamma-2 (P18508 whole entry): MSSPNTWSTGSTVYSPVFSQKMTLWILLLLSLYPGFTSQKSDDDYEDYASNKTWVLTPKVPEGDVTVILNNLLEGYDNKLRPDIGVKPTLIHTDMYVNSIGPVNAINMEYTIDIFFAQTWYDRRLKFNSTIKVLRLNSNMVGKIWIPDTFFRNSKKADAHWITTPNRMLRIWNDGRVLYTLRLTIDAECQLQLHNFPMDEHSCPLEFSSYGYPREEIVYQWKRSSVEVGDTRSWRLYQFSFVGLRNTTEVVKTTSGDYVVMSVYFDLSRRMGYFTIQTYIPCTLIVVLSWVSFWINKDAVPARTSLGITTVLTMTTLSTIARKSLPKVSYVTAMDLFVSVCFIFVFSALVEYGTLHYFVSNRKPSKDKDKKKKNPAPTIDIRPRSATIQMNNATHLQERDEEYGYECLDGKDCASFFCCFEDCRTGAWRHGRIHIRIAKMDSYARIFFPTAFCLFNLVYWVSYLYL
Sequence of Gamma-aminobutyric acid receptor subunit alpha-6/beta-3/gamma-2 (P30191 whole entry): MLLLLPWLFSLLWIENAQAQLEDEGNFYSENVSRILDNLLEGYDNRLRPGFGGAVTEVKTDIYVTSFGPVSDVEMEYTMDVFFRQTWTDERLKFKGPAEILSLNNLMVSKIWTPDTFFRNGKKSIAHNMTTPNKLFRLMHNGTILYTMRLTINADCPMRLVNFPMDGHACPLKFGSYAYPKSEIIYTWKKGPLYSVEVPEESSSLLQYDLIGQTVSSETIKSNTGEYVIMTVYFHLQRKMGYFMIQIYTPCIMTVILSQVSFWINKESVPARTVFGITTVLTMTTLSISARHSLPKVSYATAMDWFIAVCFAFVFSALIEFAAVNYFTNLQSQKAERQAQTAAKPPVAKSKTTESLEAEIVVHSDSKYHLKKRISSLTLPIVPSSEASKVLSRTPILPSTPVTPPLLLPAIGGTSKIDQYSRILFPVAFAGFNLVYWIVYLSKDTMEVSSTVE
Sequence of Gamma-aminobutyric acid receptor subunit alpha-6/beta-3/gamma-2 (P63079 whole entry): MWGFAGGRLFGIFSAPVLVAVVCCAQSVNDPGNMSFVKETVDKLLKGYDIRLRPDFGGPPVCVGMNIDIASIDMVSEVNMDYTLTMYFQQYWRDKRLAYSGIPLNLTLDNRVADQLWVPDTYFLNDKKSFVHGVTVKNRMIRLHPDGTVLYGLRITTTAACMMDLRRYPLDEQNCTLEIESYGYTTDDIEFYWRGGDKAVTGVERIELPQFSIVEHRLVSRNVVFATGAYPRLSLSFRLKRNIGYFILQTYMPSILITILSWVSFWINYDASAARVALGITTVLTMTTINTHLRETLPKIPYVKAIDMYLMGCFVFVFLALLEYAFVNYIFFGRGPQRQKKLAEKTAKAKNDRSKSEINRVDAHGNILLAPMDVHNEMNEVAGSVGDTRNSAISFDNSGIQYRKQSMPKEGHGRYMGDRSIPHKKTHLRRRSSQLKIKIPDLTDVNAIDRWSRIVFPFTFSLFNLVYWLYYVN

Consider `COc1ccc(-n2nc3c4ccc(Br)cc4[nH]cc-3c2=O)cc1`, for which the Efficacy in assay [1] was 1%; in assay [2] it was 210%. Moreover, the EC50 (usually the concentration giving half of the maximal effect) in assay [3] came to 24 µM. Also, the %max in assay [4] was 70%; in assay [5], 1060%.
